From publication PMC5218480 (PLoS ONE, 2017)

Test system: MV-4-11 cells
Experiment: Gene expression microarray analysis (Affymetrix PrimeView) and GSEA
Assay type: cell-based, human
Set-up: RFU PODN (11730768_x_at) / Fold change /veh PODN (11730768_x_at) / RFU LINC00158 (11744669_a_at) / Fold change /veh LINC00158 (11744669_a_at) / RFU DUSP10 (11751237_a_at) / Fold change /veh DUSP10 (11751237_a_at) / RFU ID3 (11757404_x_at) / Fold change /veh ID3 (11757404_x_at) / RFU PLEKHG5 (11737974_s_at) / Fold change /veh PLEKHG5 (11737974_s_at) / RFU LRRC4B (11730491_at) / Fold change /veh LRRC4B (11730491_at) / RFU GIMAP4 (11747438_a_at) / Fold change /veh GIMAP4 (11747438_a_at) / RFU KRT8 (11758183_x_at) / Fold change /veh KRT8 (11758183_x_at) / RFU CNN1 (11734310_a_at) / Fold change /veh CNN1 (11734310_a_at) / RFU VPS37D (11726825_at) / Fold change /veh VPS37D (11726825_at) / RFU C10orf10 (11716522_x_at) / Fold change /veh C10orf10 (11716522_x_at) / RFU KIR2DL2 /// KIR2DL4 /// KIR2DL5A /// KIR2DL5B /// KIR2DS1 /// KIR2DS2 /// KIR2DS3 /// KIR2DS4 /// KIR3DL3 /// KIR3DL3 /// KIR3DS1 (11738374_at) / Fold change /veh KIR2DL2 /// KIR2DL4 /// KIR2DL5A /// KIR2DL5B /// KIR2DS1 /// KIR2DS2 /// KIR2DS3 /// KIR2DS4 /// KIR3DL3 /// KIR3DL3 /// KIR3DS1 (11738374_at) / RFU C1QL1 (11718748_at) / Fold change /veh C1QL1 (11718748_at) / RFU TMPRSS4 (11747572_a_at) / Fold change /veh TMPRSS4 (11747572_a_at) / RFU HAMP (11756126_x_at) / Fold change /veh HAMP (11756126_x_at) / RFU RNFT2 (11725882_a_at) / Fold change /veh RNFT2 (11725882_a_at) / RFU NR4A2 (11747474_a_at) / Fold change /veh NR4A2 (11747474_a_at) / RFU ABCC12 (11746883_a_at) / Fold change /veh ABCC12 (11746883_a_at) / RFU TMEM136 (11760407_x_at) / Fold change /veh TMEM136 (11760407_x_at) / RFU CLDN22 /// WWC2 (11732394_at) / Fold change /veh CLDN22 /// WWC2 (11732394_at) / RFU HLA-DPB1 (11760878_x_at) / Fold change /veh HLA-DPB1 (11760878_x_at) / RFU SPINT1 (11716480_a_at) / Fold change /veh SPINT1 (11716480_a_at) / RFU GAP43 (11754022_s_at) / Fold change /veh GAP43 (11754022_s_at) / RFU A4GNT (11735810_at) / Fold change /veh A4GNT (11735810_at) / RFU PRB3 (11715151_x_at) / Fold change /veh PRB3 (11715151_x_at) / RFU TUBB4B (11761932_at) / Fold change /veh TUBB4B (11761932_at) / RFU CAPN14 (11732068_a_at) / Fold change /veh CAPN14 (11732068_a_at) / RFU TMCC2 (11721928_a_at) / Fold change /veh TMCC2 (11721928_a_at) / RFU IRGQ (11745062_a_at) / Fold change /veh IRGQ (11745062_a_at) / RFU FAM174B (11720279_a_at) / Fold change /veh FAM174B (11720279_a_at) / RFU TMPRSS4 (11748680_a_at) / Fold change /veh TMPRSS4 (11748680_a_at) / RFU FAM212B (11763350_a_at) / Fold change /veh FAM212B (11763350_a_at) / RFU PLEKHG5 (11743358_a_at) / Fold change /veh PLEKHG5 (11743358_a_at) / RFU ZSCAN30 (11745921_a_at) / Fold change /veh ZSCAN30 (11745921_a_at) / RFU CMKLR1 (11741424_a_at) / Fold change /veh CMKLR1 (11741424_a_at) / RFU LOC101060620 /// MAPK8IP1 (11723275_at) / Fold change /veh LOC101060620 /// MAPK8IP1 (11723275_at) / RFU SPTSSB (11747773_x_at) / Fold change /veh SPTSSB (11747773_x_at) / RFU PRSS12 (11739890_at) / Fold change /veh PRSS12 (11739890_at) / RFU BIN1 (11741810_x_at) / Fold change /veh BIN1 (11741810_x_at) / RFU WNT11 (11732464_a_at) / Fold change /veh WNT11 (11732464_a_at) / RFU C10orf10 (11716521_a_at) / Fold change /veh C10orf10 (11716521_a_at) / RFU C5orf56 (11738089_at) / Fold change /veh C5orf56 (11738089_at) / RFU CYB561 (11721691_x_at) / Fold change /veh CYB561 (11721691_x_at) / RFU ANKRD19P (11752326_a_at) / Fold change /veh ANKRD19P (11752326_a_at) / RFU OR2T12 /// OR2T33 /// OR2T8 (11738714_s_at) / Fold change /veh OR2T12 /// OR2T33 /// OR2T8 (11738714_s_at) / RFU VCAN (11748164_a_at) / Fold change /veh VCAN (11748164_a_at) / RFU JSRP1 (11732532_at) / Fold change /veh JSRP1 (11732532_at) / RFU KRTAP10-11 (11738290_x_at) / Fold change /veh KRTAP10-11 (11738290_x_at) / RFU MYO3A (11730013_a_at) / Fold change /veh MYO3A (11730013_a_at) / RFU EBF3 (11725865_a_at) / Fold change /veh EBF3 (11725865_a_at) / RFU CAMK2N1 (11719241_x_at) / Fold change /veh CAMK2N1 (11719241_x_at) / RFU C5orf56 (11738088_a_at) / Fold change /veh C5orf56 (11738088_a_at) / RFU OLFML3 (11715873_a_at) / Fold change /veh OLFML3 (11715873_a_at) / RFU LOC100653217 /// NTM (11731650_a_at) / Fold change /veh LOC100653217 /// NTM (11731650_a_at) / RFU MAPK11 (11762145_a_at) / Fold change /veh MAPK11 (11762145_a_at) / RFU FIZ1 (11724087_x_at) / Fold change /veh FIZ1 (11724087_x_at) / RFU OASL (11726364_x_at) / Fold change /veh OASL (11726364_x_at) / RFU SOX15 (11748057_x_at) / Fold change /veh SOX15 (11748057_x_at) / RFU CD79A (11719716_a_at) / Fold change /veh CD79A (11719716_a_at) / RFU HIST1H1D (11736915_at) / Fold change /veh HIST1H1D (11736915_at) / RFU CASKIN2 (11723855_a_at) / Fold change /veh CASKIN2 (11723855_a_at) / RFU LOC730098 (11760151_x_at) / Fold change /veh LOC730098 (11760151_x_at) / RFU OR4N2 (11742367_at) / Fold change /veh OR4N2 (11742367_at) / RFU PRRT2 (11749266_a_at) / Fold change /veh PRRT2 (11749266_a_at) / RFU SNX32 (11753110_a_at) / Fold change /veh SNX32 (11753110_a_at) / RFU CDHR5 (11726645_a_at) / Fold change /veh CDHR5 (11726645_a_at) / RFU RCAN1 (11760418_a_at) / Fold change /veh RCAN1 (11760418_a_at) / RFU FAM167A (11723789_a_at) / Fold change /veh FAM167A (11723789_a_at) / RFU FAM26E (11764081_at) / Fold change /veh FAM26E (11764081_at) / RFU ISYNA1 (11749810_s_at) / Fold change /veh ISYNA1 (11749810_s_at) / RFU ACY1 (11761880_at) / Fold change /veh ACY1 (11761880_at) / RFU 11764098_at / Fold change /veh 11764098_at / RFU SAMD14 (11745864_x_at) / Fold change /veh SAMD14 (11745864_x_at) / RFU NPB (11741838_a_at) / Fold change /veh NPB (11741838_a_at) / RFU TMPRSS6 (11731388_a_at) / Fold change /veh TMPRSS6 (11731388_a_at) / RFU KRTAP10-2 (11738614_at) / Fold change /veh KRTAP10-2 (11738614_at) / RFU ARHGAP8 /// PRR5-ARHGAP8 (11727945_x_at) / Fold change /veh ARHGAP8 /// PRR5-ARHGAP8 (11727945_x_at) / RFU KRTAP5-7 /// NADSYN1 (11734609_at) / Fold change /veh KRTAP5-7 /// NADSYN1 (11734609_at) / RFU RASL12 (11751679_a_at) / Fold change /veh RASL12 (11751679_a_at) / RFU CDKN2B (11736163_a_at) / Fold change /veh CDKN2B (11736163_a_at) / RFU PRF1 (11729649_at) / Fold change /veh PRF1 (11729649_at) / RFU, ZNF638 /// ZNF638-IT1 / Fold change vs veh, ZNF638 /// ZNF638-IT1 / RFU, PANK3 / Fold change vs veh, PANK3 / RFU, SH3YL1 / Fold change vs veh, SH3YL1 / RFU, ZEB2 / Fold change vs veh, ZEB2 / RFU, NRIP1 / Fold change vs veh, NRIP1 / RFU, PTTG1IP / Fold change vs veh, PTTG1IP / RFU, CAPN2 / Fold change vs veh, CAPN2 / RFU, MED14 / Fold change vs veh, MED14 / RFU, SNORA58 / Fold change vs veh, SNORA58 / RFU, C1orf63 / Fold change vs veh, C1orf63 / RFU, LRRFIP1 / Fold change vs veh, LRRFIP1 / RFU, NDUFAF7 / Fold change vs veh, NDUFAF7 / RFU, SLC12A2 / Fold change vs veh, SLC12A2 / RFU, IBTK / Fold change vs veh, IBTK / RFU, ESF1 / Fold change vs veh, ESF1 / Fold change vs veh, TMEM50B / RFU, TAOK1 / Fold change vs veh, TAOK1 / RFU, ACBD3 / Fold change vs veh, ACBD3 / RFU, TMA16 / Fold change vs veh, TMA16 / RFU, RWDD3 / Fold change vs veh, RWDD3 / RFU, BCAT1 / Fold change vs veh, BCAT1 / RFU, EDEM3 / Fold change vs veh, EDEM3 / RFU, TMEM33 / Fold change vs veh, TMEM33 / RFU, WDR75 / Fold change vs veh, WDR75 / RFU, AHCTF1 / Fold change vs veh, AHCTF1 / RFU, TFRC / Fold change vs veh, TFRC / RFU, ZDHHC17 / Fold change vs veh, ZDHHC17 / RFU, NOM1 / Fold change vs veh, NOM1 / RFU, ARL8B / Fold change vs veh, ARL8B / RFU, ZBTB11 / Fold change vs veh, ZBTB11 / RFU, TAMM41 / Fold change vs veh, TAMM41 / RFU, KIAA1704 /// LOC100996395 / Fold change vs veh, KIAA1704 /// LOC100996395 / RFU, ING1 / Fold change vs veh, ING1 / RFU, TRMT61B / Fold change vs veh, TRMT61B / RFU, FUBP3 / Fold change vs veh, FUBP3 / RFU, TP53 / Fold change vs veh, TP53 / RFU, TNKS2 / Fold change vs veh, TNKS2 / RFU, ZFP14 / Fold change vs veh, ZFP14 / RFU, ACTR2 / Fold change vs veh, ACTR2 / RFU, PPP3R1 / Fold change vs veh, PPP3R1 / RFU, PIK3R1 / Fold change vs veh, PIK3R1 / RFU, HNRNPA1 / Fold change vs veh, HNRNPA1 / RFU, RNF170 / Fold change vs veh, RNF170 / RFU, ZNF28 / Fold change vs veh, ZNF28 / RFU, RNGTT / Fold change vs veh, RNGTT / RFU, OGT / Fold change vs veh, OGT / RFU, BRD1 / Fold change vs veh, BRD1 / RFU, MARS / Fold change vs veh, MARS / RFU, ZNF655 / Fold change vs veh, ZNF655 / RFU, FAHD1 / Fold change vs veh, FAHD1 / RFU, BDP1 / Fold change vs veh, BDP1 / RFU, LRRCC1 / Fold change vs veh, LRRCC1 / RFU, ARID1A / Fold change vs veh, ARID1A / RFU, ZNF146 / Fold change vs veh, ZNF146 / RFU, ZNF330 / Fold change vs veh, ZNF330 / RFU, GPN3 / Fold change vs veh, GPN3 / RFU, C9orf123 / Fold change vs veh, C9orf123 / RFU, N4BP2L2 / Fold change vs veh, N4BP2L2 / RFU, ARFIP1 / Fold change vs veh, ARFIP1 / RFU, FAM179B / Fold change vs veh, FAM179B / RFU, BCL10 / Fold change vs veh, BCL10 / RFU, UHRF1BP1L / Fold change vs veh, UHRF1BP1L / RFU, BET1 / Fold change vs veh, BET1 / RFU, CNOT2 / Fold change vs veh, CNOT2 / RFU, ZNF268 / Fold change vs veh, ZNF268 / Fold change vs veh, ZNF507 / RFU, DGCR2 / Fold change vs veh, DGCR2 / RFU, WDSUB1 / Fold change vs veh, WDSUB1 / Fold change vs veh, HSP90B1 /// MIR3652 / RFU, ADSS / Fold change vs veh, ADSS / RFU, GK / Fold change vs veh, GK / RFU, ZNF148 / Fold change vs veh, ZNF148 / RFU, TAF9 / Fold change vs veh, TAF9 / RFU, SLC1A5 / Fold change vs veh, SLC1A5 / RFU, SLMO2 / Fold change vs veh, SLMO2 / RFU, ABCC4 / Fold change vs veh, ABCC4 / RFU, LOC101060439 /// RAP1B / Fold change vs veh, LOC101060439 /// RAP1B / RFU, RFX7 / Fold change vs veh, RFX7 / RFU, GTPBP10 / Fold change vs veh, GTPBP10 / RFU, CNEP1R1 / Fold change vs veh, CNEP1R1 / RFU, BIVM-ERCC5 /// ERCC5 / Fold change vs veh, BIVM-ERCC5 /// ERCC5 / RFU, ILF3 / Fold change vs veh, ILF3 / RFU 11762660_at / Fold change /veh 11762660_at / RFU VCAN (11757783_s_at) / Fold change /veh VCAN (11757783_s_at) / RFU DDX43 (11728927_at) / Fold change /veh DDX43 (11728927_at) / RFU KRT8 (11758188_x_at) / Fold change /veh KRT8 (11758188_x_at) / RFU NKD1 (11759106_at) / Fold change /veh NKD1 (11759106_at) / RFU SRD5A1 (11742802_a_at) / Fold change /veh SRD5A1 (11742802_a_at) / RFU TPSAB1 /// TPSB2 (11721975_s_at) / Fold change /veh TPSAB1 /// TPSB2 (11721975_s_at) / RFU GSTM3 (11746129_a_at) / Fold change /veh GSTM3 (11746129_a_at) / RFU IL23R (11737362_x_at) / Fold change /veh IL23R (11737362_x_at) / RFU TMEM51 (11727254_a_at) / Fold change /veh TMEM51 (11727254_a_at) / RFU PIWIL2 (11732686_x_at) / Fold change /veh PIWIL2 (11732686_x_at) / RFU ORM1 (11744905_x_at) / Fold change /veh ORM1 (11744905_x_at) / RFU CCDC152 (11743942_at) / Fold change /veh CCDC152 (11743942_at) / RFU ECM1 (11717891_a_at) / Fold change /veh ECM1 (11717891_a_at) / RFU IL23R (11748794_a_at) / Fold change /veh IL23R (11748794_a_at) / RFU TNFAIP8L3 (11732012_x_at) / Fold change /veh TNFAIP8L3 (11732012_x_at) / RFU MBOAT4 (11741988_at) / Fold change /veh MBOAT4 (11741988_at) / RFU 11764193_at / Fold change /veh 11764193_at / RFU TMEM53 (11763286_at) / Fold change /veh TMEM53 (11763286_at) / RFU MAGEB2 (11727129_at) / Fold change /veh MAGEB2 (11727129_at) / RFU TMEM200A (11744735_a_at) / Fold change /veh TMEM200A (11744735_a_at) / RFU CCDC152 (11751479_a_at) / Fold change /veh CCDC152 (11751479_a_at) / RFU FAM211A (11726209_a_at) / Fold change /veh FAM211A (11726209_a_at) / RFU RGS16 (11746705_a_at) / Fold change /veh RGS16 (11746705_a_at) / RFU VCAN (11755009_s_at) / Fold change /veh VCAN (11755009_s_at) / RFU RHOB (11743442_s_at) / Fold change /veh RHOB (11743442_s_at) / RFU RGS16 (11720943_a_at) / Fold change /veh RGS16 (11720943_a_at) / RFU RGS16 (11720944_at) / Fold change /veh RGS16 (11720944_at) / RFU, VPS4B / Fold change vs veh, VPS4B / RFU, CREB1 / Fold change vs veh, CREB1 / RFU, DNAJC13 / Fold change vs veh, DNAJC13 / RFU, GNAQ / Fold change vs veh, GNAQ / RFU, CDK5R1 / Fold change vs veh, CDK5R1 / RFU, ZRANB3 / Fold change vs veh, ZRANB3 / RFU, CUL4A / Fold change vs veh, CUL4A / RFU, CCNY / Fold change vs veh, CCNY / RFU, UFL1 / Fold change vs veh, UFL1 / RFU, COG3 / Fold change vs veh, COG3 / RFU, DIAPH2 / Fold change vs veh, DIAPH2 / RFU, SKA2 / Fold change vs veh, SKA2 / RFU, AFF3 / Fold change vs veh, AFF3 / RFU, LMF1 / Fold change vs veh, LMF1 / RFU, IPO11 / Fold change vs veh, IPO11 / RFU, DFFB / Fold change vs veh, DFFB / RFU, FOXP1 / Fold change vs veh, FOXP1 / RFU, CARD8 / Fold change vs veh, CARD8 / RFU, STRN3 / Fold change vs veh, STRN3 / RFU, ADK / Fold change vs veh, ADK / RFU, RASSF2 / Fold change vs veh, RASSF2 / RFU, WIPF1 / Fold change vs veh, WIPF1 / RFU, LARP1B / Fold change vs veh, LARP1B / RFU, RASA1 / Fold change vs veh, RASA1 / RFU, RB1 / Fold change vs veh, RB1 / RFU, PPFIA1 / Fold change vs veh, PPFIA1 / RFU, MAT2A / Fold change vs veh, MAT2A / RFU, CCT5 / Fold change vs veh, CCT5 / RFU, WDR92 / Fold change vs veh, WDR92 / RFU, CUX1 / Fold change vs veh, CUX1 / RFU, TTC7A / Fold change vs veh, TTC7A / RFU, TMEM135 / Fold change vs veh, TMEM135 / RFU, DEPTOR / Fold change vs veh, DEPTOR / RFU, CPM / Fold change vs veh, CPM / RFU, DNAJB6 / Fold change vs veh, DNAJB6 / RFU, CACNA2D3 / Fold change vs veh, CACNA2D3 / RFU, DTX4 / Fold change vs veh, DTX4 / RFU, TFCP2 / Fold change vs veh, TFCP2 / RFU, GMCL1 /// GMCL1P1 / Fold change vs veh, GMCL1 /// GMCL1P1 / RFU, AEBP2 / Fold change vs veh, AEBP2 / RFU, SNHG1 /// SNORD22 /// SNORD25 /// SNORD26 /// SNORD27 /// SNORD28 /// SNORD29 /// SNORD31 / Fold change vs veh, SNHG1 /// SNORD22 /// SNORD25 /// SNORD26 /// SNORD27 /// SNORD28 /// SNORD29 /// SNORD31 / Fold change (Aza/veh), C12orf56 (ProbeSet 11735607_a_at) / Fold change (ACY-1035/veh), C12orf56 (ProbeSet 11735607_a_at) / Fold change (Aza/veh), FGFR1OP (ProbeSet 11751329_s_at) / Fold change (ACY-1035/veh), FGFR1OP (ProbeSet 11751329_s_at) / Fold change (Aza/veh), VPS36 (ProbeSet 11739960_a_at) / Fold change (ACY-1035/veh), VPS36 (ProbeSet 11739960_a_at) / RFU SYPL1 (11715823_x_at) / Fold change /veh SYPL1 (11715823_x_at) / RFU IGFBP7 (11715501_s_at) / Fold change /veh IGFBP7 (11715501_s_at) / RFU REEP3 (11722064_at) / Fold change /veh REEP3 (11722064_at) / RFU IGLL1 (11728026_x_at) / Fold change /veh IGLL1 (11728026_x_at): dose or concentration left out as unconfirmed
Details: MV-4-11 cells, 48 hours

Compound: Nc1ncn([C@@H]2O[C@H](CO)[C@@H](O)[C@H]2O)c(=O)n1 [azacitidine]
- Fold change /veh HAMP (11756126_x_at): 0.87
